According to paper PMC10253812, “Novel 2-alkythio-4-chloro-N-[imino(heteroaryl)methyl]benzenesulfonamide Derivatives: Synthesis, Molecular Structure, Anticancer Activity and Metabolic Stability” (International Journal of Molecular Sciences, 2023):

Key:
[1] = system: MCF-7 (breast cancer) cell line; assay: MTT cell viability assay, MCF-7; type: cell-based, human; conditions: MTT assay, 72 h of incubation
Experimental: (§1) Compounds 8–24 were evaluated in vitro for their cytotoxic effect against three human cancer cell lines, i.e., HeLa (cervical cancer), HCT-116 (colon cancer) and MCF-7 (breast cancer), and the non-tumor cell line HaCaT using the MTT assay after 72 h of incubation. The results of tests are presented in Table 1 as IC50, indicating the concentration required for 50% inhibition of cell viability. Compounds 8–10 and 14–18 are not presented in the Table 1 because of their low potency (IC50 > 100 µM).
(§2) All chemicals, if not stated otherwise, were obtained from Sigma-Aldrich (St. Louis, MO, USA). The MCF-7, HeLa and HaCaT cell lines were purchased from Cell Lines Services (Eppelheim, Germany), and the HCT-116 cell line was purchased from ATCC (ATCC-No: CCL-247). The cells were cultured in Dulbecco’s modified Eagle’s medium (DMEM) supplemented with 10% fetal bovine serum, 2 mM glutamine, 100 units/mL of penicillin and 100 μg/mL of streptomycin. The cultures were maintained in a humidified atmosphere with 5% CO2 at 37 °C, in an incubator (Heraeus, HeraCell).
(§3) Cytotoxicity assay: Cell viability was determined using the MTT (3-(4,5-dimethylthiazol-2-yl)-2,5diphenyltetrazoliumbromide) assay. The cells were seeded in 96-well plates at a density of 5 × 10^3 cells/well and treated for 24, 48 and 72 h with the examined compounds in the concentration range 1–100 μM. Following treatment, MTT (0.5 mg/mL) was added to the medium, and the cells were further incubated for 2 h at 37 °C. the cells were lysed with DMSO, and the absorbance of the formazan solution was measured at 550 nm with a plate reader (Victor, 1420 multilabel counter). The experiment was performed in triplicate. The values are expressed as the mean ± SD of at least three independent experiments.

[2] = system: HaCaT (immortalized human keratinocytes); assay: MTT cell viability assay, non-tumor HaCaT; type: cell-based; conditions: 72 h of incubation, non-tumor cell line
Experimental: as §1
We also performed an assay on the non-tumor cell line HaCaT (immortalized human keratinocytes) to assess if the effect of 11–13 was selective toward HeLa cells or resulted from a more general toxic activity.
as §2, §3

[3] = system: HeLa, HCT-116 and MCF-7 cell lines; assay: MTT screening, statements pooled over the three cancer cell lines; type: cell-based; conditions: Homo sapiens, 72 h, HCT-116, MCF-7, read-out: IC50 (low potency, not shown in Table 1)
Experimental: as §1, §2, §3

[4] = system: HeLa (cervical cancer) cell line; assay: MTT cell viability assay, HeLa; type: cell-based, human; conditions: Homo sapiens, HeLa; MTT assay, 72 h of incubation; read-out: IC50 HeLa
Experimental: as §1
The cytotoxic activity of 11–13 was determined in a time-dependent manner with the MTT assay (Figure 3).
HeLa cells were treated with 11, 12 and 13 in the concentration range of 0–20 µM. […] After 48 h, the IC50 values for compounds 11, 12 and 13 were 6, 7 and 6 µM, respectively.
as §2, §3

[5] = system: HCT-116 (colon cancer) cell line; assay: MTT cell viability assay, HCT-116; type: cell-based; conditions: Homo sapiens, 72 h of incubation
Experimental: as §1, §2, §3

Structure (SMILES)	IC50 [3] [µM]	IC50 [4] [µM]	IC50 [5] [µM]	IC50 ([1]; Homo sapiens, MCF7) [µM]	further results
N.N.[Cl][Pt][Cl] [Cisplatin, reference compound]	–	–	–	–	IC50 [1]: 3 ± 0.1 µM; IC50 [2]: 7.7 ± 0.2 µM
Cc1cc(S(=O)(=O)NC(=N)n2ccn(C)c2=S)c(SCc2ccccc2)cc1Cl [Compound 8, 2-Benzylthio-4-chloro-N-[imino(3-methyl-2-thioxo-2,3-dihydro-1H-imidazol-1-yl)methyl]-5-methylbenzenesulfonamide]	> 100	–	–	–	–
Cc1cc(S(=O)(=O)NC(=N)n2ccn(C)c2=S)c(SCc2cccc(C(F)(F)F)c2)cc1Cl [Compound 9, 4-Chloro-N-[imino(3-methyl-2-thioxo-2,3-dihydro-1H-imidazol-1-yl)methyl]-5-methyl-2-(3-trifluoromethylbenzylthio)benzenesulfonamide]	> 100	–	–	–	–
Cc1cc(S(=O)(=O)NC(=N)n2ccn(C)c2=S)c(SCc2ccc(C(F)(F)F)cc2)cc1Cl [Compound 10, 4-Chloro-N-[imino(3-methyl-2-thioxo-2,3-dihydro-1H-imidazol-1-yl)methyl]-5-methyl-2-(4-trifluoromethylbenzylthio)benzenesulfonamide]	> 100	–	–	–	–
CCOC(=O)CSc1cc(Cl)c(C)cc1S(=O)(=O)NC(=N)n1ccn(C)c1=S [Compound 14, 4-Chloro-2-ethoxycarbonylmethylthio-N-[imino(3-methyl-2-thioxo-2,3-dihydro-1H-imidazol-1-yl)methyl]-5-methylbenzenesulfonamide]	> 100	–	–	–	–
Cc1cc(S(=O)(=O)NC(=N)n2ncn(C)c2=S)c(SCc2ccccc2)cc1Cl [Compound 15, 2-Benzylthio-4-chloro-5-methyl-N-[imino(4-methyl-5-thioxo-4,5-dihydro-1H-1,2,4-triazol-1-yl)methyl]benzenesulfonamide]	> 100	–	–	–	–
Cc1cc(S(=O)(=O)NC(=N)n2ncn(C)c2=S)c(SCc2ccc(C(F)(F)F)cc2)cc1Cl [Compound 17, 4-Chloro-N-[imino(4-methyl-5-thioxo-4,5-dihydro-1H-1,2,4-triazol-1-yl)methyl]-5-methyl-2-(4-trifluoromethylbenzylthio)benzenesulfonamide]	> 100	–	–	–	–
Cc1cc(S(=O)(=O)NC(=N)n2ncn(C)c2=S)c(SCc2ccc(Cl)cc2)cc1Cl [Compound 18, 4-Chloro-2-(4-chlorobenzylthio)-N-[imino(4-methyl-5-thioxo-4,5-dihydro-1H-1,2,4-triazol-1-yl)methyl]5-methylbenzenesulfonamide]	> 100	–	–	–	–
Cc1cc(S(=O)(=O)NC(=N)n2c(=S)[nH]c3ccccc32)c(SCc2ccccc2)cc1Cl [Compound 19, 2-Benzylthio-4-chloro-5-methyl-N-[imino-(2-thioxo-2,3-dihydro-1H-benzo[d]imidazol-1-yl)methyl]benzenesulfonamide]	–	60 ± 3	36 ± 1	82 ± 4	–
Cc1cc(S(=O)(=O)NC(=N)n2c(=S)[nH]c3ccccc32)c(SCc2cccc(C(F)(F)F)c2)cc1Cl [Compound 20, 4-Chloro-N-[imino-(2-thioxo-2,3-dihydro-1H-benzo[d]imidazol-1-yl)methyl]-5-methyl-2-(3-trifluoromethylbenzylthio)benzenesulfonamide]	–	43 ± 1	17 ± 0.5	49 ± 1	–
Cc1cc(S(=O)(=O)NC(=N)n2c(=S)[nH]c3ccccc32)c(SCc2ccc(C(F)(F)F)cc2)cc1Cl [Compound 21, 4-Chloro-N-[imino-(2-thioxo-2,3-dihydro-1H-benzo[d]imidazol-1-yl)methyl]-5-methyl-2-(4-trifluoromethylbenzylthio)benzenesulfonamide]	–	52 ± 1	23 ± 0.2	62 ± 3	–
Cc1cc(S(=O)(=O)NC(=N)n2c(=S)[nH]c3ccccc32)c(SCc2ccc(Cl)cc2)cc1Cl [Compound 22, 4-Chloro-2-(4-chlorobenzylthio)-N-[imino-(2-thioxo-2,3-dihydro-1H-benzo[d]imidazol-1-yl)methyl]-5-methylbenzenesulfonamide]	–	49 ± 2	27 ± 0.5	73 ± 2	–
Cc1cc(S(=O)(=O)NC(=N)n2c(=S)[nH]c3ccccc32)c(SCc2cc3c(cc2Cl)OCO3)cc1Cl [Compound 23, 4-Chloro-2-(6-chlorobenzo [1,3]dioxol-5-ylmethylthio)-N-[imino-(2-thioxo-2,3-dihydro-1H-benzo[d]imidazol-1-yl)methyl]-5-methylbenzenesulfonamide]	–	57 ± 1	34 ± 0.3	50 ± 2	–
Cc1cc(S(=O)(=O)NC(=N)n2c(=S)[nH]c3ccccc32)c(SCc2cccc3ccccc23)cc1Cl [Compound 24, 4-Chloro-N-[imino-(2-thioxo-2,3-dihydro-1H-benzo[d]imidazol-1-yl)methyl]-5-methyl-2-(naphthalen-1-ylmethylthio)benzenesulfonamide]	–	33 ± 1	21 ± 0.6	56 ± 2	–
